Data on one molecule can be found in BindingDB's records for doi:10.3109/14756366.2012.712516 (Dumlupinar University, 2013).

Test [1] has as its target T1, Carbonic anhydrase 2 (Homo sapiens, UniProt P00918). Nature of the test: Hydratase Activity Assay.
Test [2] addresses T2, Carbonic anhydrase 1 (Homo sapiens, UniProt P00915). Nature of the test: Hydratase Activity Assay.
In test [3] the target is T1, Carbonic anhydrase 2. Nature of the test: Esterase Activity Assay. To be noted: pH 7.4. The protocol: (§1) The enzymatic reaction, in a total volume of 3.0 mL, contained 1.4 mL of 0.05 M Tris-SO4 buffer (pH 7.4), 1 mL of 3 mM 4-nitrophenylacetate, 0.5 mL H2O and 0.1 mL enzyme solution.
The target in test [4] is T2, Carbonic anhydrase 1. Nature of the test: Esterase Activity Assay. To be noted: pH 7.4. How it is done:
as §1

The target of test [5] is T1, Carbonic anhydrase 2. Nature of the test: CA Activity Assay.
For test [6], the target named is T2, Carbonic anhydrase 1. Nature of the test: CA Activity Assay.

T2 sequence (P00915 whole entry): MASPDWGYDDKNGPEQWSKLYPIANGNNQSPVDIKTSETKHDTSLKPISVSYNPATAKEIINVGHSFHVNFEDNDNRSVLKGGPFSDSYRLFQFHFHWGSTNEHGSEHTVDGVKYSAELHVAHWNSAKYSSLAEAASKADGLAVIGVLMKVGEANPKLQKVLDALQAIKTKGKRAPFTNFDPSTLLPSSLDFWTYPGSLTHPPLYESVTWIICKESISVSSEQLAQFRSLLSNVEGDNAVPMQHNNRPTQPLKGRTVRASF

For the molecule `NS(=O)(=O)c1nnc(NC(=O)c2nn(-c3cccc([N+](=O)[O-])c3)c(-c3ccccc3)c2C(=O)c2ccccc2)s1` [N-[5-(aminosulfonyl)-1,3,4-thiadiazol-2-yl]-4-benzoyl-1-(3-nitrophenyl)-5-phenyl-1H-pyrazole-3-carboxamide (1)], the IC50 on Carbonic anhydrase 2 [1] was 0.4 µM; against Carbonic anhydrase 1 [2], 1.2 µM; against Carbonic anhydrase 2 [3], 3 µM; at Carbonic anhydrase 1 [4], 1.4 µM. In addition, the Ki on Carbonic anhydrase 2 [5] amounted to 3 µM; at Carbonic anhydrase 1 [6] it was 1.4 µM.

Usually IC50 stands for the point on the concentration scale where inhibition reaches its midpoint. In general, Ki refers to the dissociation constant of the complex between target and ligand, obtained from inhibition or displacement.
